The values that follow come from publication PMC11037862 (ACS chemical neuroscience, 2023).

The test deals with S1PR1 (sphingosine-1-phosphate receptor 1) (Homo sapiens, UniProt P21453). Description: saturation autoradiography with the tritiated ligand on human brain sections.

For orientation: Kd means the equilibrium constant for the complex coming apart. Low values mean tighter binding, high ones weaker binding.

Sequence of S1PR1 (sphingosine-1-phosphate receptor 1) (P21453 whole entry): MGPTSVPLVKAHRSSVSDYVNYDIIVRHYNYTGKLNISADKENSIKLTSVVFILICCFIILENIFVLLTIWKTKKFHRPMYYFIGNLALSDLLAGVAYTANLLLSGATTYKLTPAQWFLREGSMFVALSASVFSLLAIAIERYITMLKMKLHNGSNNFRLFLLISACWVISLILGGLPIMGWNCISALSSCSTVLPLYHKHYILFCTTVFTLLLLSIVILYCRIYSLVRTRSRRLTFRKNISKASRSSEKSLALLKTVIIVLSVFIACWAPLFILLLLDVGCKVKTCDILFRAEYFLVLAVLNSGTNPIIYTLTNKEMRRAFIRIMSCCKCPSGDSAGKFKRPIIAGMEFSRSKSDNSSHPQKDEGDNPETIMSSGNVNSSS

On to [^3H]CS1P1, for which the affinity, expressed as Kd, was 2.7 ± 0.2 nM.
